Read-outs that look alike come from different tables or passages of the source.
Tests used:
[1] = system: T1, endogenous voltage-gated sodium channels expressed in murine DRG neurons; test: Whole cell voltage clamp of endogenous sodium currents (INa) in cultured DRG sensory neurons; type: cell-based, mouse; conditions: −40 mV holding potential, read-out: ND-Tam potency against DRG INa (IC50)
T1 construct: other: DRG neurons, −40 mV holding potential

[2] = system: T2, endogenous voltage-gated sodium channels expressed in murine DRG neurons; test: as above; type: cell-based, mouse; conditions: −60 mV holding potential, read-out: ND-Tam potency against DRG INa (IC50)
T2 construct: other: waiting for 5 minutes after removal; ND-Tam potency against DRG INa (IC50); other: DRG neurons, −60 mV holding potential; other: 3 μM ND-Tam treatment; other: DR

human Nav1.7 = target: T3, human Nav1.7 (Homo sapiens, UniProt Q15858); test: Voltage clamp of heterologously expressed Nav1.7; type: cell-based; conditions: Hill fit, printed for ND-Tam and 4OH-Tam together
T3 construct: expressed in transfected cells; host or cells: HEK cells, transient transfection with lipofectamine
Experimental: While no clear drug-receptor interactions were determined within Siteout, the S6 E220 side chains formed hydrogen bond interactions with the ether and amine moieties of the ND-Tam molecules found at Sitein. […] After structural alignment of the crystalized NavMs-Tam complex with the cryo EM Nav1.7+b1+b2 channel coordinates, the S6 side chain hydroxyl in DII (S969) and the carboxyl side chains in DIII (E1458) and DIV (D1761) observed in the human channel were nearly superimposable with E220 of the prokaryotic Nav subunits. In addition, the distances from the drug ether and amines were within acceptable distances (2.8-3.1 Å) for hydrogen bond formation for all three site chains (FIG. 2B). […]
Plasmids encoding the human version of channels Nav1.1, 1.6, and 1.7 were co-transfected with TRES GFP into HEK cell lines for whole-cell voltage clamp studies (American Type Culture Collection). […] Plasma membrane currents were recorded using borosilicate glass electrodes polished to resistances of […]. Sodium currents conducted by heterologously expressed Navs were recorded using the following solutions (in mM). […] Endogenous DRG sodium currents were recorded using an intracellular solution consisting of 70 CsCl, 70 CsF, 2 EGTA, 5 HEPES, and 5 NaCl; the pH was adjusted to 7.4 with CsOH. […]

T3 sequence (Q15858 whole entry): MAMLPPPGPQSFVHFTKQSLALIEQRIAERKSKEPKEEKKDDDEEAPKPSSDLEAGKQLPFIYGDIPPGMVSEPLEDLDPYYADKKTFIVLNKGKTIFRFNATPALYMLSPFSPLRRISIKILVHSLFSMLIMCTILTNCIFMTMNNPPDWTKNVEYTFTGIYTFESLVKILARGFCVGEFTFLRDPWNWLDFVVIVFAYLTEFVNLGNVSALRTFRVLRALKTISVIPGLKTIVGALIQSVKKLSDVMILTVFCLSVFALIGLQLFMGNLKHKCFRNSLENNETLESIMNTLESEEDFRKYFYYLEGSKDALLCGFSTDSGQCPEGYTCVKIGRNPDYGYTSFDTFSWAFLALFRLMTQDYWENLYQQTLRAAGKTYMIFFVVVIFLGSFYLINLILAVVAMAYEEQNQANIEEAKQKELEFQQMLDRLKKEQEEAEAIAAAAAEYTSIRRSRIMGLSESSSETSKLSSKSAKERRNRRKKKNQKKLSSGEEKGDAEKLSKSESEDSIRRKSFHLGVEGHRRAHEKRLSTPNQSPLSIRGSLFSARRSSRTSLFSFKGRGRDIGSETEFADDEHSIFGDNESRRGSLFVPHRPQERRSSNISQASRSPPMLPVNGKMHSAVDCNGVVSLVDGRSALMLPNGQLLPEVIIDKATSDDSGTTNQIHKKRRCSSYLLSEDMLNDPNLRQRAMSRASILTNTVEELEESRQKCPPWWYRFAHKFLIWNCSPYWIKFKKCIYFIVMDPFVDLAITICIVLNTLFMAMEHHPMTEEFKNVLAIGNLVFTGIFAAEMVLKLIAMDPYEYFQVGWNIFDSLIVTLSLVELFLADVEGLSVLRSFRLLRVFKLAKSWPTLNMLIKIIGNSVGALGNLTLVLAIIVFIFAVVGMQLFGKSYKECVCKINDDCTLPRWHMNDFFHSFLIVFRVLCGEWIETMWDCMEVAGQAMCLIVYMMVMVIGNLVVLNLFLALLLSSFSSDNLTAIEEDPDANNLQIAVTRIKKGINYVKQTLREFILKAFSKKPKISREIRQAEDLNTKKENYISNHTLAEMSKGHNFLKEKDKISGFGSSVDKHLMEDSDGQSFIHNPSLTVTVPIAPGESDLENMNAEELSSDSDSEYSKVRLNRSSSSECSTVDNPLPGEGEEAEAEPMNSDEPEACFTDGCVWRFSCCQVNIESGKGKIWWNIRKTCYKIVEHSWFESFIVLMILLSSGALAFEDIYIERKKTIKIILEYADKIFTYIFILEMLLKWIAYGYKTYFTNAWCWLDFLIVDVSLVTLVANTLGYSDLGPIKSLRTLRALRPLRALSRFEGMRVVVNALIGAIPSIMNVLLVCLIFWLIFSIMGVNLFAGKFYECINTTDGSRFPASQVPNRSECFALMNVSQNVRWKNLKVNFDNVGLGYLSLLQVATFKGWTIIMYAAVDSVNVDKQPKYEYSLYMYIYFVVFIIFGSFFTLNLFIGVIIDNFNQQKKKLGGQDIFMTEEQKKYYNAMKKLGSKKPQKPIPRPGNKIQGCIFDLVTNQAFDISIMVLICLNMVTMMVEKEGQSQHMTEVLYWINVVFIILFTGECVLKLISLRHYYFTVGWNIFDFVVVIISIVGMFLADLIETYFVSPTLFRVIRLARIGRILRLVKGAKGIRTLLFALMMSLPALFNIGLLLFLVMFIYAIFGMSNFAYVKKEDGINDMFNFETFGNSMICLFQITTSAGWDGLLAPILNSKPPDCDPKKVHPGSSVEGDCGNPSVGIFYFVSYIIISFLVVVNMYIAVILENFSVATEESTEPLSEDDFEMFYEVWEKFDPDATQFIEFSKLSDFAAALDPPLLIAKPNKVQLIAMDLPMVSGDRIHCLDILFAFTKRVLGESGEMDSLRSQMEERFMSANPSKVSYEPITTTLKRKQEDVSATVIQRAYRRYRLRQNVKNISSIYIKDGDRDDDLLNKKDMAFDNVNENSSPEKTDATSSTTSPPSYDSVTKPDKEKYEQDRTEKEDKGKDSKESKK

## CC/C(=C(\c1ccccc1)c1ccc(OCCNC)cc1)c1ccccc1 [ND-Tam, 2-[4-[(Z)-1,2-diphenylbut-1-enyl]phenoxy]-N-methylethanamine]
[1]
  IC50: 3.9 nM
[2]
  IC50: 112 nM
Human Nav1.7
  slope of concentration-dependence: 2.1
